Experimental data as given in patent US20190053492A1, “SUBSTITUTED PYRIDINE COMPOUNDS AS PESTICIDES” (Bayer CropScience Aktiengesellschaft, priority 2016, published 2019).

What was measured:
[1] = log P by HPLC on reversed-phase column (C 18), EEC Directive 79/831 Annex V.A8; type: physicochemical; settings: 55° C.; for LOGP_HCOOH: log P (HCOOH)
Method: Temperature: 55° C. […] Called log P (HCOOH) in the table. […] Called log P (neutral) in the table.

Ctenocephalides felis = Ctenocephalides felis oral test; type: in vivo; settings: application rate 100 ppm in citrated cattle blood, after 2 days, adult cat fleas
Method in brief: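 About 20 unfed adult cat fleas fed through a parafilm membrane on citrated cattle blood dosed with compound from a DMSO formulation. Percent kill was scored after 2 days.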

Lucilia cuprina = Lucilia cuprina test; type: in vivo; settings: application rate 100 ppm, after 2 days, L1 larvae
Method: Lucilia cuprina Test Solvent: dimethyl sulphoxide To produce a suitable active ingredient formulation, 10 mg of active ingredient are mixed with 0.5 ml of dimethyl sulphoxide, and the concentrate is diluted with water to the desired concentration. About 20 L1 larvae of the Australian sheep blowfly (Lucilia cuprina) are transferred into a test vessel containing minced horsemeat and the active ingredient formulation of the desired concentration. After 2 days, the kill in % is determined. 100% means that all the larvae have been killed; 0% means that no larvae have been killed.

Musca domestica = Musca domestica test; type: in vivo; settings: application rate 100 ppm, after 2 days, adult houseflies
Method: Musca domestica Test Solvent: dimethyl sulphoxide To produce a suitable active ingredient formulation, 10 mg of active ingredient are mixed with 0.5 ml of dimethyl sulphoxide, and the concentrate is diluted with water to the desired concentration. Vessels containing a sponge treated with sugar solution and the active ingredient formulation of the desired concentration are populated with 10 adult houseflies (Musca domestica). After 2 days, the kill in % is determined. 100% means that all of the flies have been killed; 0% means that none of the flies have been killed.

Phaedon cochleariae = Phaedon cochleariae spray test; type: in vivo; settings: after 7 days, Chinese cabbage leaf discs
Method in brief: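 Chinese cabbage leaf discs sprayed with compound in acetone/DMF and emulsifier-containing water, then infested with mustard beetle larvae once dry. Efficacy in % scored after 7 days (100% = all larvae killed, 0% = none).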

Spodoptera frugiperda = Spodoptera frugiperda spray test; type: in vivo; settings: after 7 days, maize leaf discs
Method in brief: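 Maize leaf discs were sprayed with compound formulated in acetone/DMF and emulsifier-containing water, dried, then infested with Spodoptera frugiperda caterpillars. Percent kill was scored after 7 days, from 100% (all dead) to 0% (none dead).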

[2] = acidic range pH 2.7, 0.1% aqueous formic acid and acetonitrile, reversed-phase column (C 18)
[3] = log P, neutral range, HPLC on reversed-phase column (C 18)
[4] = acidic range at pH 2.7, 0.1% aqueous formic acid and acetonitrile, HPLC on reversed-phase column (C 18)
[5] = log P (neutral), HPLC reversed-phase column (C 18)

| Compound | LOGP_HCOOH [1, 2] | LOGP_NEUTRAL [1, 3] | efficacy (kill in %) (Ctenocephalides felis) [%] | efficacy (kill in %) (Lucilia cuprina) [%] | efficacy (kill in %) (Musca domestica) [%] | efficacy (beetle larvae killed) (Phaedon cochleariae; application rate 100 g/ha) [%] | efficacy (beetle larvae killed) (Phaedon cochleariae; application rate 500 g/ha) [%] | efficacy (caterpillars killed) (Spodoptera frugiperda; application rate 100 g/ha) [%] | efficacy (caterpillars killed) (Spodoptera frugiperda; application rate 500 g/ha) [%] | LOGP_HCOOH [1, 4] | LOGP_NEUTRAL [1, 5] |
| --- | --- | --- | --- | --- | --- | --- | --- | --- | --- | --- | --- |
| N#Cc1ccc(CNC(=O)c2cc(-c3ccc(C(F)(F)F)cc3)cc(NC(=O)C3CC3)n2)cc1F [Example I-026] | 3.87 | 3.79 | 100 | 100 | 100 | 100 | 100 | 100 | 100 |  |  |
| CC(NC(=O)c1cc(-c2ccc(C(F)(F)F)cc2)cc(NC(=O)C2CC2)n1)c1ccc(C#N)cc1 (centres unmarked) [Example I-040] | 4.01 | 3.94 | 98 | 100 | 90 | 100 | 100 | 83 | 100 |  |  |
| CC(C)C(=O)Nc1cc(-c2ccc(OC(F)(F)F)cc2)cc(C(=O)NCc2cc(F)c(C#N)c(F)c2)n1 [Example I-073] | 4.35 | 4.21 | 100 | 100 | 80 |  |  | 83 | 100 |  |  |
| N#Cc1cc(F)c(CNC(=O)c2cc(-c3ccc(C(F)(F)F)cc3)cc(NC(=O)C3CC3)n2)cc1F [Example I-074] | 4.05 | 3.90 | 100 | 100 | 100 | 100 | 100 | 100 | 100 |  |  |
| N#Cc1ccc(CNC(=O)c2cc(-c3ccc(C(F)(F)F)cc3)cc(NC(=O)C3CC3)n2)c(F)c1 [Example I-077] | 3.90 | 3.79 | 100 | 100 | 80 | 83 | 100 | 100 | 100 |  |  |
| CC(C)C(=O)Nc1cc(-c2ccc(C(F)(F)F)cc2)cc(C(=O)NCc2ccc(C#N)cc2F)n1 [Example I-078] | 3.99 | 3.96 | 100 | 100 | 100 |  | 100 | 100 | 100 |  |  |
| N#Cc1ccc(CNC(=O)c2cc(-c3ccc(OC(F)(F)F)cc3)cc(NC(=O)C3CC3)n2)c(F)c1 [Example I-079] | 4.03 | 3.91 | 100 | 100 | 90 |  | 100 | 100 | 100 |  |  |
| O=C(NCc1ccc([N+](=O)[O-])cc1)c1cc(-c2ccc(OC(F)(F)F)cc2)cc(NC(=O)C2CC2)n1 [Example I-085] | 4.11 | 3.97 | 100 | 100 | 80 | 100 | 100 | 100 | 100 |  |  |
| O=C(NC1CC1)c1cc(-c2ccc(OC(F)(F)F)cc2)cc(NC(=O)C2CC2)n1 [Example I-089] | 3.51 | 3.39 | 100 | 95 | 100 | 100 | 100 | 100 | 100 |  |  |
| Cn1nccc1-c1ccc(CNC(=O)c2cc(-c3ccc(OC(F)(F)F)cc3)cc(NC(=O)C3CC3)n2)cc1 [Example I-107] | 3.86 | 3.80 |  | 100 | 90 | 100 | 100 |  | 100 |  |  |
| N#Cc1ccc(C2(NC(=O)c3cc(-c4ccc(OC(F)(F)F)cc4)cc(NC(=O)C4CC4)n3)CC2)cc1 [Example I-159] |  | 3.93 | 100 | 90 | 80 |  |  | 100 | 100 | 4.08 |  |
| N#Cc1ccc(CNC(=O)c2cc(-c3ccc(OC(F)(F)F)cc3)cc(NC(=O)C3CC(F)(F)C3)n2)cc1 [Example I-213] |  | 4.02 | 100 | 100 |  | 100 | 100 | 100 |  | 4.14 |  |
| CC(C)C(=O)N(C)c1cc(-c2ccc(OC(F)(F)F)cc2)cc(C(=O)NCc2ccc(C#N)cc2)n1 [Example I-217] |  | 3.89 | 80 | 100 |  |  | 83 | 100 | 100 | 4.02 |  |
| N#Cc1ccc(CNC(=O)c2cc(-c3ccc(C(F)(F)F)c(F)c3)cc(NC(=O)C3CC3)n2)cc1 [Example I-224] |  | 3.82 | 100 | 100 |  | 100 | 100 | 100 | 100 | 3.86 |  |
| N#Cc1ccc(CNC(=O)c2cc(-c3ccc(N(C(F)(F)F)C(F)(F)F)cc3)cc(NC(=O)C3CC3)n2)cc1 [Example I-225] |  | 4.34 | 100 | 100 |  | 100 | 100 | 100 | 100 | 4.40 |  |
| CC(NC(=O)c1cc(-c2ccc(OC(F)(F)F)cc2)cc(NC(=O)C2CC2)n1)c1ccc([N+](=O)[O-])cc1 (centres unmarked) [Example I-228] |  |  | 100 | 100 |  |  | 100 | 83 | 100 | 4.28 |  |
| CC(C#N)NC(=O)c1cc(-c2ccc(C(F)(F)C(F)(F)F)c(F)c2)cc(NC(=O)C2CC2)n1 (centres unmarked) [Example I-245] | 3.94 |  | 100 | 80 |  | 100 | 100 | 100 | 100 |  |  |
| CC(NC(=O)c1cc(-c2ccc(C(F)(F)C(F)(F)F)c(F)c2)cc(NC(=O)C2CC2)n1)c1ccc(C#N)cc1 (centres unmarked) [Example I-247] | 4.56 |  | 100 | 100 |  | 100 | 100 | 100 | 100 |  | 4.49 |
| N#Cc1cc(F)c(CNC(=O)c2cc(-c3ccc(C(F)(F)C(F)(F)F)c(F)c3)cc(NC(=O)C3CC3)n2)cc1F [Example I-249] | 4.51 |  | 100 | 100 |  | 100 | 100 | 100 | 100 |  | 4.51 |
| N#Cc1c(F)cc(CNC(=O)c2cc(-c3ccc(C(F)(F)C(F)(F)F)c(F)c3)cc(NC(=O)C3CC3)n2)cc1F [Example I-250] | 4.56 |  | 100 | 95 |  | 100 | 100 | 100 | 100 |  | 4.50 |
